Where two headings read alike, the source gives them in different places.
Target: T1, Human BCL-XL protein (N-terminal HiBiT tagged BCL-XL in HT1080 cells) (Homo sapiens, UniProt Q07817)
T1 construct: expressed in transfected cells; host or cells: HT-1080 (ATCC CCL-121), stably transduced with lentivirus pLV-UBC-N-HiBiT-BCL-XL-PGK-puro and selected with puromycin
Experiment: HiBiT based degradation assay
Format: cell-based
Conditions: HT1080 cells expressing HiBiT-BCL-XL; for Ymin (24 h) / Ymin (6 h): BCL-XL degradation normalized with DMSO control; for DC50: BCL-XL degradation
Summary of the method: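 HT1080 cells stably transduced by lentivirus with N-terminally HiBiT-tagged human BCL-XL and kept under 1 μg/mL puromycin selection were seeded at three thousand cells per well in 40 μL RPMI 1640 into 384-well plates pre-spotted with compounds across a concentration range. Luminescence was read on a PHERAstar FSX, normalized to DMSO, and fitted with a four-parameter logistic model.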

T1 sequence (Q07817 whole entry): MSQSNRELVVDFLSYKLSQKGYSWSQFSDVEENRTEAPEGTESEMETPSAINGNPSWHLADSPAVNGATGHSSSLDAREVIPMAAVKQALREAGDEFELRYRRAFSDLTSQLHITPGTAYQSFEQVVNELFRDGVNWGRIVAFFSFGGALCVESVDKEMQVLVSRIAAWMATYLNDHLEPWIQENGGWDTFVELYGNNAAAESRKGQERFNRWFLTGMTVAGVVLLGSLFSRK

Structure (SMILES)	Ymin (24 h)	DC50 (24 h, read-out: EC50 (24 h)) [nM]	Ymin (6 h)	DC50 (6 h, read-out: EC50 (6 h)) [nM]
Cc1c(OCCC2CCN(CCC3CCN(c4ccc5c(C6CCC(=O)NC6=O)nn(C)c5c4)CC3)CC2)cccc1-c1ccc(N2CCc3cccc(C(=O)Nc4nc5ccccc5s4)c3C2)nc1C(=O)O (centres unmarked) [Compound 223, 6-(8-(benzo[d]thiazol-2-ylcarbamoyl)-3,4-dihydroisoquinolin-2(1H)-yl)-3-(3-(2-(1-(2-(1-(3-(2,6-dioxopiperidin-3-yl)-1-methyl-1H-indazol-6-yl)piperidin-4-yl)ethyl)piperidin-4-yl)ethoxy)-2-methylphenyl)picolinic acid]	A (Ymin < 50%)	< 100		
Cc1c(OCCO[C@@H]2C[C@H]3CC[C@@H](C2)N3CC(=O)Nc2cccc3c(C4CCC(=O)NC4=O)nn(C)c23)cccc1-c1ccc(N2CCc3cccc(C(=O)Nc4nc5ccccc5s4)c3C2)nc1C(=O)O (stereo partly drawn) [Compound 224a, 6-(8-(benzo[d]thiazol-2-ylcarbamoyl)-3,4-dihydroisoquinolin-2(1H)-yl)-3-(3-(2-(((1R,3s,5S)-8-(2-((3-(2,6-dioxopiperidin-3-yl)-1-methyl-1H-indazol-7-yl)amino)-2-oxoethyl)-8-azabicyclo[3.2.1]octan-3-yl)oxy)ethoxy)-2-methylphenyl)picolinic acid]	B (50% ≤ Ymin < 70%)	< 100	C (Ymin ≥ 70%)	1000 to 10000
Cc1c(OCCO[C@H]2C[C@H]3CC[C@@H](C2)N3CC(=O)Nc2cccc3c(C4CCC(=O)NC4=O)nn(C)c23)cccc1-c1ccc(N2CCc3cccc(C(=O)Nc4nc5ccccc5s4)c3C2)nc1C(=O)O (stereo partly drawn) [Compound 224b, 6-(8-(benzo[d]thiazol-2-ylcarbamoyl)-3,4-dihydroisoquinolin-2(1H)-yl)-3-(3-(2-(((1R,3r,5S)-8-(2-((3-(2,6-dioxopiperidin-3-yl)-1-methyl-1H-indazol-7-yl)amino)-2-oxoethyl)-8-azabicyclo[3.2.1]octan-3-yl)oxy)ethoxy)-2-methylphenyl)picolinic acid]	B (50% ≤ Ymin < 70%)	< 100		
Cc1c(OCC2CC3(CCN(CCN4CCN(c5ccc6c(C7CCC(=O)NC7=O)nn(C)c6c5)CC4)CC3)C2)cccc1-c1ccc(N2CCc3cccc(C(=O)Nc4nc5ccccc5s4)c3C2)nc1C(=O)O (centres unmarked) [Compound 225, 6-(8-(benzo[d]thiazol-2-ylcarbamoyl)-3,4-dihydroisoquinolin-2(1H)-yl)-3-(3-((7-(2-(4-(3-(2,6-dioxopiperidin-3-yl)-1-methyl-1H-indazol-6-yl)piperazin-1-yl)ethyl)-7-azaspiro[3.5]nonan-2-yl)methoxy)-2-methylphenyl)picolinic acid]	A (Ymin < 50%)	< 100		
Cc1c(OCC2CC3(CCN(CC(=O)Nc4cccc5c(C6CCC(=O)NC6=O)nn(C)c45)CC3)C2)cccc1-c1ccc(N2CCc3cccc(C(=O)Nc4nc5ccccc5s4)c3C2)nc1C(=O)O (centres unmarked) [Compound 226, 6-[8-(1,3-benzothiazol-2-ylcarbamoyl)-3,4-dihydro-1H-isoquinolin-2-yl]-3-[3-[[7-[2-[[3-(2,6-dioxo-3-piperidyl)-1-methyl-indazol-7-yl]amino]-2-oxo-ethyl]-7-azaspiro[3.5]nonan-2-yl]methoxy]-2-methyl-phenyl]pyridine-2-carboxylic acid]	B (50% ≤ Ymin < 70%)	100 to 1000	C (Ymin ≥ 70%)	< 100
Cc1c(O[C@H]2CC[C@H](CCCC(=O)N3CCN(c4ccc5c(C6CCC(=O)NC6=O)nn(C)c5c4)CC3)CC2)cccc1-c1ccc(N2CCc3cccc(C(=O)Nc4nc5ccccc5s4)c3C2)nc1C(=O)O (some centres unmarked) [Compound 227a, 6-(8-(benzo[d]thiazol-2-ylcarbamoyl)-3,4-dihydroisoquinolin-2(1H)-yl)-3-(3-(((1s,4r)-4-(4-(4-(3-(2,6-dioxopiperidin-3-yl)-1-methyl-1H-indazol-6-yl)piperazin-1-yl)-4-oxobutyl)cyclohexyl)oxy)-2-methylphenyl)picolinic acid]	A (Ymin < 50%)	< 100		
Cc1c(OCCN2CCN(CC3CCN(c4cccc5c(C6CCC(=O)NC6=O)nn(C)c45)CC3)CC2)cccc1-c1ccc(N2CCc3cccc(C(=O)Nc4nc5ccccc5s4)c3C2)nc1C(=O)O (centres unmarked) [Compound 228, 6-(8-(benzo[d]thiazol-2-ylcarbamoyl)-3,4-dihydroisoquinolin-2(1H)-yl)-3-(3-(2-(4-((1-(3-(2,6-dioxopiperidin-3-yl)-1-methyl-1H-indazol-7-yl)piperidin-4-yl)methyl)piperazin-1-yl)ethoxy)-2-methylphenyl)picolinic acid]	B (50% ≤ Ymin < 70%)	< 100		
Cc1c(OCCC(F)(F)C2CCN(CC(=O)Nc3ccc4c(C5CCC(=O)NC5=O)nn(C)c4c3)CC2)cccc1-c1ccc(N2CCc3cccc(C(=O)Nc4nc5ccccc5s4)c3C2)nc1C(=O)O (centres unmarked) [Compound 229, 6-(8-(benzo[d]thiazol-2-ylcarbamoyl)-3,4-dihydroisoquinolin-2(1H)-yl)-3-(3-(3-(1-(2-((3-(2,6-dioxopiperidin-3-yl)-1-methyl-1H-indazol-6-yl)amino)-2-oxoethyl)piperidin-4-yl)-3,3-difluoropropoxy)-2-methylphenyl)picolinic acid]	B (50% ≤ Ymin < 70%)	< 100		
Cc1c(OCCCC2CCN(CCN3CCN(c4cccc5c(C6CCC(=O)NC6=O)nn(C)c45)CC3)CC2)cccc1-c1ccc(N2CCc3cccc(C(=O)Nc4nc5ccccc5s4)c3C2)nc1C(=O)O (centres unmarked) [Compound 230, 6-(8-(benzo[d]thiazol-2-ylcarbamoyl)-3,4-dihydroisoquinolin-2(1H)-yl)-3-(3-(3-(1-(2-(4-(3-(2,6-dioxopiperidin-3-yl)-1-methyl-1H-indazol-7-yl)piperazin-1-yl)ethyl)piperidin-4-yl)propoxy)-2-methylphenyl)picolinic acid]	A (Ymin < 50%)	< 100		
Cc1c(OCC[C@@H]2CCN(CC(=O)Nc3cccc4c(C5CCC(=O)NC5=O)nn(C)c34)C2)cccc1-c1ccc(N2CCc3cccc(C(=O)Nc4nc5ccccc5s4)c3C2)nc1C(=O)O (stereo partly drawn) [Compound 231a, 6-[8-(1,3-benzothiazol-2-ylcarbamoyl)-3,4-dihydro-1H-isoquinolin-2-yl]-3-[3-[2-[(3S)-1-[2-[[3-(2,6-dioxo-3-piperidyl)-1-methyl-indazol-7-yl]amino]-2-oxo-ethyl]pyrrolidin-3-yl]ethoxy]-2-methyl-phenyl]pyridine-2-carboxylic acid]	B (50% ≤ Ymin < 70%)	< 100		
Cc1c(OCC[C@H]2CCN(CC(=O)Nc3cccc4c(C5CCC(=O)NC5=O)nn(C)c34)C2)cccc1-c1ccc(N2CCc3cccc(C(=O)Nc4nc5ccccc5s4)c3C2)nc1C(=O)O (stereo partly drawn) [Compound 231b, 6-[8-(1,3-benzothiazol-2-ylcarbamoyl)-3,4-dihydro-1H-isoquinolin-2-yl]-3-[3-[2-[(3R)-1-[2-[[3-(2,6-dioxo-3-piperidyl)-1-methyl-indazol-7-yl]amino]-2-oxo-ethyl]pyrrolidin-3-yl]ethoxy]-2-methyl-phenyl]pyridine-2-carboxylic acid]	B (50% ≤ Ymin < 70%)	< 100		
